Results as given in patent US6914045B2, “Glycopeptide antibiotics” (Wyeth Holdings Corporation, priority 2001, dated 2005).
Values after ≈ are worked out from the molar mass of the structure shown.

What was measured:
Test in all cases: in vitro antibacterial evaluation, MIC by broth dilution
Type in all cases: cell-based
Staphylococcus sp. = settings: broth dilution, 18 hours at 35° C.
Procedure, shortened: (§1)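 Step 1: dilute antibiotic across 64-0.06 μg/mL in Muller-Hinton II […]. Step 2: inoculate at 5×10^5 CFU/mL.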

Streptococcus sp. = settings: broth dilution, 18 hours at 35° C.
Procedure, shortened: as §1

Escherichia coli = settings: 18 hours at 35° C.
Procedure, shortened: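 Following National Committee for Clinical Laboratory Standards recommendations (M7-A2), susceptibility was measured by dilution in Muller-Hinton II […]. Bacteria were seeded at 5×10^5 CFU/mL against compound concentrations from 64 down to 0.06 μg/mL.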

Enterococcus sp. = settings: broth dilution, 18 hours at 35° C.
Procedure, shortened: as §1

- MIC Coagulase Negative Staphylococcus (GC 4547) (Staphylococcus sp.): >64 µg/mL
- MIC Coagulase Negative Staphylococcus (GC 4548) (Staphylococcus sp.): >64 µg/mL
- MIC Coagulase Negative Staphylococcus (GC 4549) (Staphylococcus sp.): >64 µg/mL
- MIC Coagulase Negative Staphylococcus (GC 4551) (Staphylococcus sp.): >64 µg/mL
- MIC Coagulase Negative Staphylococcus (GC 6257) (Staphylococcus sp.): >64 µg/mL
- MIC Staphylococcus aureus (ATCC 29213) (Staphylococcus sp.): >64 µg/mL
- MIC Staphylococcus aureus (GC 1131) (Staphylococcus sp.): >64 µg/mL
- MIC Staphylococcus aureus (GC 3051) (Staphylococcus sp.): >64 µg/mL
- MIC Staphylococcus aureus (GC 3053) (Staphylococcus sp.): >64 µg/mL
- MIC Staphylococcus aureus (GC 4541) (Staphylococcus sp.): >64 µg/mL
- MIC Staphylococcus aureus (GC 4542) (Staphylococcus sp.): >64 µg/mL
- MIC Staphylococcus aureus (GC 4544) (Staphylococcus sp.): >64 µg/mL
- MIC Staphylococcus aureus (GC 4545) (Staphylococcus sp.): >64 µg/mL
- MIC Staphylococcus aureus-SMITH (GC 4543) (Staphylococcus sp.): >64 µg/mL
- MIC Staphylococcus aureus (ATCC 29213) (Staphylococcus sp.; strain ATCC 29213): >64 µg/mL
- MIC Staphylococcus aureus (GC 1131) (Staphylococcus sp.; strain GC 1131): >64 µg/mL
- MIC Staphylococcus aureus (GC 3051) (Staphylococcus sp.; strain GC 3051): >64 µg/mL
- MIC Staphylococcus aureus (GC 3053) (Staphylococcus sp.; strain GC 3053): >64 µg/mL
- MIC Staphylococcus aureus (GC 4541) (Staphylococcus sp.; strain GC 4541): >64 µg/mL
- MIC Staphylococcus aureus (GC 4542) (Staphylococcus sp.; strain GC 4542): >64 µg/mL
- MIC Staphylococcus aureus (GC 4544) (Staphylococcus sp.; strain GC 4544): >64 µg/mL
- MIC Staphylococcus aureus (GC 4545) (Staphylococcus sp.; strain GC 4545): >64 µg/mL
- MIC Coagulase Negative Staphylococcus (GC 4547) (Staphylococcus sp.; strain GC 4547): >64 µg/mL
- MIC Coagulase Negative Staphylococcus (GC 4548) (Staphylococcus sp.; strain GC 4548): >64 µg/mL
- MIC Coagulase Negative Staphylococcus (GC 4549) (Staphylococcus sp.; strain GC 4549): >64 µg/mL
- MIC Coagulase Negative Staphylococcus (GC 4551) (Staphylococcus sp.; strain GC 4551): >64 µg/mL
- MIC Coagulase Negative Staphylococcus (GC 6257) (Staphylococcus sp.; strain GC 6257): >64 µg/mL
- MIC Staphylococcus aureus-SMITH (GC 4543) (Staphylococcus sp.; strain SMITH GC 4543): >64 µg/mL
- MIC Streptococcus pneumoniae (ATCC 6301) (Streptococcus sp.; strain ATCC 6301): 64 µg/mL (≈ 48.8 µM)
- MIC Streptococcus pneumoniae (GC 1894) (Streptococcus sp.; strain GC 1894): 64 µg/mL (≈ 48.8 µM)
- MIC Streptococcus pyogenes (GC 4563) (Streptococcus sp.; strain GC 4563): >64 µg/mL
- MIC Streptococcus agalactiae (GC 4564) (Streptococcus sp.; strain GC 4564): >64 µg/mL
- MIC Streptococcus pneumoniae (GC 4565) (Streptococcus sp.; strain GC 4565): 64 µg/mL (≈ 48.8 µM)
- MIC Escherichia coli (ATCC 25922) (Escherichia coli; Escherichia coli (ATCC 25922)): >64 µg/mL
- MIC Escherichia coli (GC 4559) (Escherichia coli; Escherichia coli (GC 4559)): >64 µg/mL
- MIC Escherichia coli (GC 4560) (Escherichia coli; Escherichia coli (GC 4560)): >64 µg/mL
- MIC Enterococcus avium (GC 4558) (Enterococcus sp.; Enterococcus avium (GC 4558)): 64 µg/mL (≈ 48.8 µM)
- MIC Enterococcus faecalis (ATCC 29212) (Enterococcus sp.; Enterococcus faecalis (ATCC 29212)): >64 µg/mL
- MIC Enterococcus faecalis (GC 4553) (Enterococcus sp.; Enterococcus faecalis (GC 4553)): >64 µg/mL
- MIC Enterococcus faecalis (GC 4554) (Enterococcus sp.; Enterococcus faecalis (GC 4554)): >64 µg/mL
- MIC Enterococcus faecalis (GC 6189) (Enterococcus sp.; Enterococcus faecalis (GC 6189)): >64 µg/mL
- MIC Enterococcus faecium (GC 2243) (Enterococcus sp.; Enterococcus faecium (GC 2243)): >64 µg/mL
- MIC Enterococcus faecium (GC 4556) (Enterococcus sp.; Enterococcus faecium (GC 4556)): >64 µg/mL
- MIC Enterococcus faecium (GC 4557) (Enterococcus sp.; Enterococcus faecium (GC 4557)): 64 µg/mL (≈ 48.8 µM)
- MIC Enterococcus faecalis (ATCC 29212) (Enterococcus sp.; strain ATCC 29212): >64 µg/mL
- MIC Enterococcus faecalis (GC 2242) (Enterococcus sp.; strain GC 2242): >64 µg/mL
- MIC Enterococcus faecium (GC 2243) (Enterococcus sp.; strain GC 2243): >64 µg/mL
- MIC Enterococcus faecalis (GC 2691) (Enterococcus sp.; strain GC 2691): >64 µg/mL
- MIC Enterococcus faecalis (GC 3059) (Enterococcus sp.; strain GC 3059): >64 µg/mL
- MIC Enterococcus faecalis (GC 4552) (Enterococcus sp.; strain GC 4552): >64 µg/mL
- MIC Enterococcus faecalis (GC 4553) (Enterococcus sp.; strain GC 4553): >64 µg/mL
- MIC Enterococcus faecalis (GC 4554) (Enterococcus sp.; strain GC 4554): >64 µg/mL
- MIC Enterococcus faecium (GC 4556) (Enterococcus sp.; strain GC 4556): >64 µg/mL
- MIC Enterococcus faecium (GC 4557) (Enterococcus sp.; strain GC 4557): 64 µg/mL (≈ 48.8 µM)
- MIC Enterococcus avium (GC 4558) (Enterococcus sp.; strain GC 4558): 64 µg/mL (≈ 48.8 µM)
- MIC Enterococcus faecalis (GC 6189) (Enterococcus sp.; strain GC 6189): >64 µg/mL
SMILES: CC(c1ccccc1)C1NC(=O)CNC(=O)C(CO)NC(=O)C(C(O)C2CNC(=N)N2C2OC(CO)C(O)C(O)C2O)NC(=O)C(C(O)C2CNC(=N)N2)NC(=O)C(Cc2ccc(OC3OC(CO)C(OC4OC(CO)C(O)C(O)C4O)C(O)C3O)c(N)c2)NC1=O (stereo not drawn) [Example 287, Cyclo[glycyl-β-methylphenylalanyl-2-amino-O-(4-O-hexopyranosylhexopyranosyl)tyrosyl-3-(2-iminoimidazolidin-4-yl)seryl-3-(3-hexopyranosyl-2-iminoimidazolidin-4-yl)serylseryl]]
- MIC Staphylococcus haemolyticus (GC 4546) (Staphylococcus sp.): >64 µg/mL
- MIC Staphylococcus haemolyticus (GC 4546) (Staphylococcus sp.; strain GC 4546): >64 µg/mL
